One may read the IC50 as the concentration that inhibits the measured activity by half.

The target of this experiment is HDAC1 (Homo sapiens, UniProt Q13547). Put plainly: Isoform selectivity assay, recombinant HDAC isoforms.
HDAC1, sequence (Q13547 whole entry, canonical isoform): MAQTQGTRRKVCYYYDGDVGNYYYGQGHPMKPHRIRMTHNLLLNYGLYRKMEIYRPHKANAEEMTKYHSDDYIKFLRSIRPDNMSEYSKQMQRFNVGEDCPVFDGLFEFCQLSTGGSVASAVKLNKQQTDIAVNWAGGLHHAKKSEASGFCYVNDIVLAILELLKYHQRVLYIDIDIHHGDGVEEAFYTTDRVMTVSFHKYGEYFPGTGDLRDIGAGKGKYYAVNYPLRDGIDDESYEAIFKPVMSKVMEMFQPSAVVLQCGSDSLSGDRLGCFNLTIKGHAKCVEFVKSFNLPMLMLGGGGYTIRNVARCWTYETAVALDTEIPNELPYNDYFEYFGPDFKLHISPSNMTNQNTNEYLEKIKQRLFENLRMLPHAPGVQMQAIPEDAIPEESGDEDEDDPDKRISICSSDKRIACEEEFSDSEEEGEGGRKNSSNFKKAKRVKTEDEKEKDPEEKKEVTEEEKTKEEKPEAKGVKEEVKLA

Procedure: Assay was performed in 96-well black microplate and total volume of the assay was 100 μL. Hela nuclear extract was diluted HDAC assay buffer (final concentration of 3.0 μg/mL). Enzyme mixture was made of 10 μL of diluted enzyme and 30 μL of HDAC buffer. 40 μl of enzyme mixture followed by 10 μL of test compound (final concentration from 0.01 to 10 μM) or vehicle (control) was added to each well. The plate was pre-incubated at 37° C. for 10 minutes. The HDAC reaction was started by adding 50 μl of HDAC substrate Boc-Lys (Ac)-AMC (Anaspec, Inc Fremont, Calif., USA). The plate was incubated at 37° C. for 45 minutes. The reaction was stopped by adding 50 μL of Trypsin stop solution and plate further incubated at 37° C. for 15 minutes. Measuring the fluorescence at excitation wavelength of 360 nm and emission wavelength of 460 nm monitored the release of AMC. Buffer alone and substrate alone served as blank.
Following the HDAC inhibition assay using Hela nuclear extract, isoform selectivity was tested using recombinant HDAC isoforms (Biomol, USA).

Regarding `O=C(NO)c1ccc(Cn2cc(-c3ccc(CN4CCCC4)cc3)nn2)cc1` [Example 8, N-Hydroxy-4-[4-(4-pyrrolidin-1-ylmethyl-phenyl)-[1,2,3]triazol-1-ylmethyl]-benzamide], the IC50 was 0.025 µM.

These data come from patent US20120101099A1, “HISTONE DEACETYLASE INHIBITORS” (ANTHEM BIOSCIENCES PRIVATE LIMITED, priority 2009, published 2012).
